Reference: patent US20100292255A1, “Therapeutic Compounds and Their Use in Treating Diseases and Disorders” (Myriad Pharmaceuticals, Inc., priority 2007, published 2010)

Biological target: T1, purified human Hsp90
T1 construct: purified human Hsp90 (Stressgen, SPP-770)
Test: Hsp90 binding assay: displacement of BODIPY-labeled geldanamycin measured by fluorescence polarization
Details: BODIPY-GM 10 nM, Hsp90 30 nM, overnight at room temperature; read-out: GM displacement from purified Hsp90 measured by FP IC 50
Protocol: Binding of the Example Compounds to purified Hsp90 was assayed by measuring the displacement of BODIPY-labeled geldanamycin (BODIPY-GM) from purified human Hsp90, using a fluorescence polarization assay adapted from Kim et al. (J. Biomolec. Screening, 9(5):375-381 (2004)). Compound dilutions (in 100% DMSO) were added to black-bottom 96-well plates (Greiner Bio-One, Monroe, N.C.) in 2% DMSO final, and equal volumes of BODIPY-GM (10 nM final) and purified human Hsp90 (Stressgen, SPP-770; 30 nM final) (Assay Designs, Ann Arbor, Mich.) in assay buffer (20 mM HEPES-KOH pH 7.3, 50 mM KCl, 5 mM MgCl2, 20 mM Na2MoO4, 0.01% NP-40, 0.1 mg/mL bovine gamma globulin [P2045; Invitrogen, Carlsbad, Calif.], 2 mM DTT) were added sequentially to yield a final volume of 50 microliters. Plates were incubated overnight at room temperature. Parallel and perpendicular fluorescence measurements were read (Analyst AD plate reader; LJL BioSystems, Middletown, Conn.) with excitation/emission wavelengths of 485/530 nm. Background fluorescence (buffer only) was subtracted, and fluorescence polarization (FP) values, expressed in mP units, were calculated from parallel and perpendicular fluorescence readings as follows:
FP=(parallel−perpendicular)/(parallel+perpendicular)*1000.
Percent inhibition was calculated by normalizing the FP values to those obtained in parallel reactions containing DMSO and subtracting these normalized values from 100%. Intrinsic compound fluorescence was independently monitored, and FP data points confounded by compound fluorescence were excluded from the analysis.

IC50 | SMILES
35 nM | C[C@H](O)C(=O)N1CCC(CCn2c(Sc3cc4c(cc3Br)CCO4)nc3c(N)ncnc32)CC1 [Example Compound 173, (2S)-1-[4-(2-{6-Amino-8-[(5-bromo-2,3-dihydro-1-benzofuran-6-yl)thio]-9H-purin-9-yl}ethyl)piperidin-1-yl]-1-oxopropan-2-ol]
150 nM | COC(=O)c1cc2c(cc1Sc1nc3c(N)ncnc3n1CCC1CCNCC1)OCO2 [Example Compound 174, Methyl 6-{[6-amino-9-(2-piperidin-4-ylethyl)-9H-purin-8-yl]thio}-1,3-benzodioxole-5-carboxylate]
900 nM | Nc1ncnc2c1nc(Sc1cc3ccoc3cc1Br)n2CCC1CCN(C=O)CC1 [Example Compound 176, 4-(2-{6-Amino-8-[(6-bromo-1-benzofuran-5-yl)thio]-9H-purin-9-yl}ethyl)piperidine-1-carbaldehyde]
2900 nM | Nc1ncnc2c1nc(Sc1cc3c(cc1F)OCCO3)n2CCC1CCN(C=O)CC1 [Example Compound 183, 4-(2-{6-Amino-8-[(7-fluoro-2,3-dihydro-1,4-benzodioxin-6-yl)thio]-9H-purin-9-yl}ethyl)piperidine-1-carbaldehyde]
310 nM | CN1CCOc2cc(Br)c(Sc3nc4c(N)ncnc4n3CCC3CCN(C=O)CC3)cc21 [Example Compound 184, 4-(2-{6-Amino-8-[(7-bromo-4-methyl-3,4-dihydro-2H-1,4-benzoxazin-6-yl)thio]-9H-purin-9-yl}ethyl)piperidine-1-carbaldehyde]
65 nM | CN1CCOc2cc(Sc3nc4c(N)ncnc4n3CCC3CCN(C=O)CC3)c(Br)cc21 [Example Compound 186, 4-(2-{6-Amino-8-[(6-bromo-4-methyl-3,4-dihydro-2H-1,4-benzoxazin-7-yl)thio]-9H-purin-9-yl}ethyl)piperidine-1-carbaldehyde]
5000 nM | CN1CCOc2cc(Sc3nc4c(N)ncnc4n3CCC3CCN(C=O)CC3)ccc21 [Example Compound 187, 4-(2-{6-Amino-8-[(4-methyl-3,4-dihydro-2H-1,4-benzoxazin-7-yl)thio]-9H-purin-9-yl}ethyl)piperidine-1-carbaldehyde]
205 nM | Nc1ncnc2c1nc(Sc1cc3c(cc1Cl)OCO3)n2CCC1CCN(C=O)CC1 [Example Compound 188, 4-(2-{6-Amino-8-[(6-chloro-1,3-benzodioxol-5-yl)thio]-9H-purin-9-yl}ethyl)piperidine-1-carbaldehyde]
> 5000 nM | Nc1ncnc2c1nc(Sc1cc3occc3cc1Br)n2CCC1CCC(F)(F)CC1 [Example Compound 189, 8-[(5-Bromo-1-benzofuran-6-yl)thio]-9-[2-(4,4-difluorocyclohexyl)ethyl]-9H-purin-6-amine]
2500 nM | CC(C)(C)OC(=O)N1CCC(CCn2c(Sc3cc4occc4cc3Br)nc3c(N)ncnc32)CC1 [Example Compound 191, tert-Butyl 4-(2-{6-amino-8-[(5-bromo-1-benzofuran-6-yl)thio]-9H-purin-9-yl}ethyl)piperidine-1-carboxylate]
45 nM | Nc1ncnc2c1nc(Sc1cc3occc3cc1Br)n2CCC1CCN(C(=O)CO)CC1 [Example Compound 195, 2-[4-(2-{6-Amino-8-[(5-bromo-1-benzofuran-6-yl)thio]-9H-purin-9-yl}ethyl)piperidin-1-yl]-2-oxoethanol]
150 nM | Nc1ncnc2c1nc(Sc1cc3occc3cc1Br)n2CCC1CCNCC1 [Example Compound 197, 8-[(5-Bromo-1-benzofuran-6-yl)thio]-9-(2-piperidin-4-ylethyl)-9H-purin-6-amine]

Continued, compound first:

SMILES | IC50
CCOC(=O)c1cc2c(cc1Sc1nc3c(N)ncnc3n1CCC1CCNCC1)OCO2 [Example Compound 175, ethyl 6-{[6-amino-9-(2-piperidin-4-ylethyl)-9H-purin-8-yl]thio}-1,3-benzodioxole-5-carboxylate] | 70 nM
Nc1ncnc2c1nc(Sc1cc3occc3cc1Cl)n2CCC1CCN(C=O)CC1 [Example Compound 178, 4-(2-{6-Amino-8-[(5-chloro-1-benzofuran-6-yl)thio]-9H-purin-9-yl}ethyl)piperidine-1-carbaldehyde] | 305 nM
Nc1ncnc2c1nc(Sc1cc(Br)c3c(c1)CCO3)n2CCC1CCN(C=O)CC1 [Example Compound 179, 4-(2-{6-Amino-8-[(7-bromo-2,3-dihydro-1-benzofuran-5-yl)thio]-9H-purin-9-yl}ethyl)piperidine-1-carbaldehyde] | 4000 nM
Nc1ncnc2c1nc(Sc1cc3c(cc1Br)OCC3)n2CCC1CCN(C=O)CC1 [Example Compound 180, 4-(2-{6-Amino-8-[(6-bromo-2,3-dihydro-1-benzofuran-5-yl)thio]-9H-purin-9-yl}ethyl)piperidine-1-carbaldehyde] | 400 nM
CC1(C)CCc2cc(Br)c(Sc3nc4c(N)ncnc4n3CCC3CCN(C=O)CC3)cc21 [Example Compound 181, 4-(2-{6-Amino-8-[(6-bromo-3,3-dimethyl-2,3-dihydro-1H-inden-5-yl)thio]-9H-purin-9-yl}ethyl)piperidine-1-carbaldehyde] | 1500 nM
Nc1ncnc2c1nc(Sc1cc(Br)c3occc3c1)n2CCC1CCN(C=O)CC1 [Example Compound 182, 4-(2-{6-Amino-8-[(7-bromo-1-benzofuran-5-yl)thio]-9H-purin-9-yl}ethyl)piperidine-1-carbaldehyde] | > 5000 nM
CN1CCOc2cc(Sc3nc4c(N)ncnc4n3CCC3CCN(C=O)CC3)c(Cl)cc21 [Example Compound 185, 4-(2-{6-Amino-8-[(6-chloro-4-methyl-3,4-dihydro-2H-1,4-benzoxazin-7-yl)thio]-9H-purin-9-yl}ethyl)piperidine-1-carbaldehyde] | 400 nM
Nc1ncnc2c1nc(Sc1cc3c(cc1Br)OCO3)n2CCC1CCC(F)(F)CC1 [Example Compound 190, 8-[(6-Bromo-1,3-benzodioxol-5-yl)thio]-9-[2-(4,4-difluorocyclohexyl)ethyl]-9H-purin-6-amine] | 650 nM
CC(C)(C)OC(=O)N1CCC(CCn2c(Sc3cc4c(cc3C(F)(F)F)OCC4)nc3c(N)ncnc32)CC1 [Example Compound 192, tert-Butyl 4-[2-(6-amino-8-{[6-(trifluoromethyl)-2,3-dihydro-1-benzofuran-5-yl]thio}-9H-purin-9-yl)ethyl]piperidine-1-carboxylate] | > 5000 nM
CN(C)C(=O)c1cc2c(cc1Sc1nc3c(N)ncnc3n1CCC1CCN(C=O)CC1)OCO2 [Example Compound 193, 6-({6-amino-9-[2-(1-formylpiperidin-4-yl)ethyl]-9H-purin-8-yl}thio)-N,N-dimethyl-1,3-benzodioxole-5-carboxamide] | 4300 nM
CC(=O)OCC(=O)N1CCC(CCn2c(Sc3cc4occc4cc3Br)nc3c(N)ncnc32)CC1 [Example Compound 194, 2-[4-(2-{6-Amino-8-[(5-bromo-1-benzofuran-6-yl)thio]-9H-purin-9-yl}ethyl)piperidin-1-yl]-2-oxoethyl acetate] | 150 nM
CC(=O)O[C@@H](C)C(=O)N1CCC(CCn2c(Sc3cc4occc4cc3Br)nc3c(N)ncnc32)CC1 [Example Compound 198, (1S)-2-[4-(2-{6-Amino-8-[(5-bromo-1-benzofuran-6-yl)thio]-9H-purin-9-yl}ethyl)piperidin-1-yl]-1-methyl-2-oxoethyl acetate] | 110 nM
